Test results published in the supplement of paper PMC6045584.
± gives the standard deviation of the averaged measurements.

Assays:
CRIZOTINIB = compound: C[C@@H](Oc1cc(-c2cnn(C3CCNCC3)c2)cnc1N)c1c(Cl)ccc(F)c1Cl [CRIZOTINIB]; assay: surviving fraction relative to DMSO-only wells; higher = less growth inhibition; conditions: exposure time: 5 days
Method in brief: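 Log-phase tumour cell lines were seeded at 250–500 cells per well in 384-well plates. After 24 hours they were exposed continuously for five days to inhibitors at 0.5, 1, 5, 10, 50, 100, 500 and 1000 nM. Viability was read by CellTiter-Glo luminescence after 10 minutes at room temperature, and surviving fraction is luminescence normalised to the median of DMSO-only wells. Each line was screened three times and kept only if replicate Pearson r >0.7 and median Z' >0.3.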

MLN-4924 = compound: NS(=O)(=O)OC[C@@H]1C[C@@H](n2ccc3c(N[C@H]4CCc5ccccc54)ncnc32)C[C@@H]1O [MLN-4924]; assay: area under dose-response curve of surviving fraction (unscaled, Aref=0) (surviving fraction x log10(nM)); higher = more resistant; conditions: exposure time: 5 days; dose range 0.5-1000 nM
Method in brief: (§1)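 Each tumour cell line was screened three times in 384-well plates, receiving eight inhibitor concentrations from 0.5 to 1000 nM for five days. CellTiter-Glo luminescence gave viability, normalised to DMSO-only wells. Using the drc R package, surviving fractions were fitted with 3-parameter logistic dose-response curves, and the unscaled activity area over log10 dose (Aref = 0) was taken as the area under the curve.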

DASATINIB = compound: Cc1nc(Nc2ncc(C(=O)Nc3c(C)cccc3Cl)s2)cc(N2CCN(CCO)CC2)n1 [DASATINIB]; assay: as above; conditions: exposure time: 5 days; dose range 0.5-1000 nM
Method in brief: as §1

[1] = compound: CNCc1ccc(-c2[nH]c3cc(F)cc4c3c2CCNC4=O)cc1; assay: as above; conditions: exposure time: 5 days; dose range 0.5-1000 nM
Method in brief: as §1

FORETINIB = compound: COc1cc2c(Oc3ccc(NC(=O)C4(C(=O)Nc5ccc(F)cc5)CC4)cc3F)ccnc2cc1OCCCN1CCOCC1 [FORETINIB]; assay: as above; conditions: exposure time: 5 days; dose range 0.5-1000 nM
Method in brief: as §1

TEMOZOLOMIDE = compound: Cn1nnc2c(C(N)=O)ncn2c1=O [TEMOZOLOMIDE]; assay: as above; conditions: exposure time: 5 days; dose range 0.5-1000 nM
Method in brief: as §1

Test System	surviving fraction (CRIZOTINIB; 1 nM)	surviving fraction (CRIZOTINIB; 5 nM)	surviving fraction (CRIZOTINIB; 10 nM)	surviving fraction (CRIZOTINIB; 50 nM)	surviving fraction (CRIZOTINIB; 100 nM)	surviving fraction (CRIZOTINIB; 500 nM)	surviving fraction (CRIZOTINIB; 1000 nM)	area under dose-response curve (MLN-4924)	area under dose-response curve (DASATINIB)	area under dose-response curve [1]	area under dose-response curve (FORETINIB)	area under dose-response curve (TEMOZOLOMIDE)	surviving fraction (CRIZOTINIB; 0.5 nM)
CCK81 LARGE INTESTINE	0.854 ± 0.084	0.776 ± 0.15	0.788 ± 0.087	0.749 ± 0.11	0.718 ± 0.028	0.62 ± 0.12	0.315 ± 0.053	2.47	1.86	2.66	2.29	2.52	–
G292 BONE	1.04 ± 0.055	1.07 ± 0.012	1.08 ± 0.038	0.9452 ± 0.0094	0.951 ± 0.033	0.634 ± 0.025	0.41 ± 0.016	2.51	1.79	3.17	2.74	3.33	1.02 ± 0.037
HCC38 BREAST	1.18 ± 0.06	1.31 ± 0.069	1.28 ± 0.041	1.29 ± 0.13	1.28 ± 0.13	–	0.63 ± 0.09	2.17	2.79	2.19	2.93	4.36	1.27 ± 0.15
HCC70 BREAST	1.1 ± 0.13	1.16 ± 0.022	–	1.18 ± 0.1	–	1.07 ± 0.059	0.818 ± 0.12	2.21	2.81	3.67	3.69	3.54	1.09 ± 0.06
HMLE3 BREAST	–	1.18 ± 0.081	1.07 ± 0.089	1.05 ± 0.054	1.04 ± 0.12	0.828 ± 0.062	0.649 ± 0.046	2.48	2.46	–	2.9	3.48	1.07 ± 0.043
HMT3552 BREAST	1.05 ± 0.073	1.04 ± 0.015	1.06 ± 0.015	1.07 ± 0.023	1.18 ± 0.035	0.597 ± 0.045	0.201 ± 0.012	2.14	1.53	2.94	2.99	3.67	1.01 ± 0.042
HS57T BREAST	1.09 ± 0.056	1.14 ± 0.026	1.07 ± 0.025	–	–	0.676 ± 0.011	0.56 ± 0.046	–	–	–	–	–	1 ± 0.02
HS578T BREAST	1.13 ± 0.17	1.13 ± 0.11	1.14 ± 0.18	1.07 ± 0.25	0.994 ± 0.14	0.833 ± 0.066	0.722 ± 0.021	2.37	1.56	2.93	–	3.09	1.04 ± 0.16
